In patent EP1222194B1, “7-ACYLAMINO-3-HETEROARYLTHIO-3-CEPHEM CARBOXYLIC ACID ANTIBIOTICS AND PRODRUGS THEREOF” (priority 1999, dated 2001):
Converted amounts (≈) assume the structure as drawn. Like-named read-outs stand apart in the source and are kept apart here.

Columns and labels:
[1] = test system: E. coli ATCC25992; assay: Broth microdilution MIC (NCCLS); assay type: cell-based; conditions: Escherichia coli, Mueller-Hinton Broth, 24 h at 35 °C
Description: (§1) Compounds were evaluated for antimicrobial activity against a panel of bacterial strains using a broth microdilution assay performed as recommended by the NCCLS (1). The minimum inhibitory concentration (MIC) was defined as the lowest concentration of drug which prevented the growth of the bacteria. The following 16 organisms constituted the primary panel of evaluation:
(§2) For this primary panel, the assay was performed in Mueller-Hinton Broth (MHB) with a final bacterial inoculum of 5 x 10^5 CFU/mL (from an early-log phase culture) and a final volume of 100 µL. Control drugs, including imipenem, vancomycin, Penicillin G, dicloxacillin (vs. MSSA ATCC29213 only), and new compounds were prepared at a concentration equivalent to 2-fold the desired final concentration. Dilution of compounds were prepared directly in the plates by serial 2-fold dilution using a multichannel pipette. Positive and negative growth control were included in each plate.
(§3) The bacterial inocula were prepared as follows. For each strain one isolated colony was used to inoculate a volume of 8 mL of Mueller-Hinton broth and these cultures were incubated overnight (20h) at 35 °C in a shaking incubator. At the exception of Enterococcus strains, culture were then diluted 1:10 and allowed to grow for an additional one hour at 35 °C in a shaking incubator. The inocula were prepared by diluting the early log-phase (1h) cultures 1:1000 with fresh Mueller-Hinton broth. E. faecium and E. faecalis were prepared by diluting overnight cultures 1:333 and 1:666, respectively, with fresh Mueller-Hinton broth . A volume of 50 µL of the inocula was added to each well. […] The exact inocula were determined by applying […] of 10-fold serial dilution of the bacterial suspensions on TSA. After overnight incubation at 35 °C, colony forming units were manually counted.
(§4) Microtiter plates were incubated during 24 h at 35 °C and were read using a microtiterplate reader (Molecular Devices) at 650 nm as well as by visual observation using a microtiterplate reading mirror.

[2] = test system: E. faecalis ATCC 29212; assay: Broth microdilution MIC (NCCLS); assay type: cell-based; conditions: Enterococcus faecalis, ATCC29212, Mueller-Hinton Broth, 24 h at 35 °C
Description: as §1, §2, §3, §4

[3] = test system: E. faecalis VanB (Van^R); assay: Broth microdilution MIC (NCCLS); assay type: cell-based; conditions: Enterococcus faecalis, Mueller-Hinton Broth, 24 h at 35 °C
Description: as §1, §2, §3, §4

[4] = test system: E. faecium A491 (Amp^R); assay: Broth microdilution MIC (NCCLS); assay type: cell-based; conditions: Enterococcus faecium, Mueller-Hinton Broth, 24 h at 35 °C
Description: as §1, §2, §3, §4

[5] = test system: E. faecium ATCC 35667; assay: Broth microdilution MIC (NCCLS); assay type: cell-based; conditions: Enterococcus faecium, ATCC35667, Mueller-Hinton Broth, 24 h at 35 °C
Description: as §1, §2, §3, §4

[6] = test system: E. faecium VanA (Van^R); assay: Broth microdilution MIC (NCCLS); assay type: cell-based; conditions: Enterococcus faecium, Mueller-Hinton Broth, 24 h at 35 °C
Description: as §1, §2, §3, §4

[7] = test system: P. aeruginosa ATCC 27853; assay: Broth microdilution MIC (NCCLS); assay type: cell-based; conditions: Pseudomonas aeruginosa, ATCC27853, Mueller-Hinton Broth, 24 h at 35 °C
Description: as §1, §2, §3, §4

[8] = test system: S. aureus 76 (Meth^R)(lac^+); assay: Broth microdilution MIC (NCCLS); assay type: cell-based; conditions: Staphylococcus aureus, Mueller-Hinton Broth, 24 h at 35 °C
Description: as §1, §2, §3, §4

[9] = test system: S. aureus ATCC 13709 (Meth^S); assay: Broth microdilution MIC (NCCLS); assay type: cell-based; conditions: Staphylococcus aureus, ATCC13709, Mueller-Hinton Broth, 24 h at 35 °C
Description: as §1, §2, §3, §4

[10] = test system: S. aureus ATCC 29213; assay: Broth microdilution MIC (NCCLS); assay type: cell-based; conditions: Staphylococcus aureus, ATCC29213, Mueller-Hinton Broth, 24 h at 35 °C
Description: as §1, §2, §3, §4

[11] = test system: S. aureus ATCC 33593 (Meth^R); assay: Broth microdilution MIC (NCCLS); assay type: cell-based; conditions: Staphylococcus aureus, ATCC33593, Mueller-Hinton Broth, 24 h at 35 °C
Description: as §1, §2, §3, §4

[12] = test system: S. aureus Col8A(Meth^S)(lac^-); assay: Broth microdilution MIC (NCCLS); assay type: cell-based; conditions: Staphylococcus aureus, Mueller-Hinton Broth, 24 h at 35 °C
Description: as §1, §2, §3, §4

[13] = test system: S. aureus PC1 (Meth^S)(lac^+); assay: Broth microdilution MIC (NCCLS); assay type: cell-based; conditions: Staphylococcus aureus, 24 h
Description: as §1, §2, §3, §4

[14] = test system: S. aureus Spain #356 (Meth^R); assay: Broth microdilution MIC (NCCLS); assay type: cell-based; conditions: Staphylococcus aureus, Mueller-Hinton Broth, 24 h at 35 °C
Description: as §1, §2, §3, §4

[15] = test system: S. haemolyticus 05 (Meth^R); assay: Broth microdilution MIC (NCCLS); assay type: cell-based; conditions: Staphylococcus haemolyticus, Mueller-Hinton Broth, 24 h at 35 °C
Description: as §1, §2, §3, §4

[16] = In vitro stability of compounds in rat serum; assay type: in vitro ADME; conditions: % loss after 60 min exposure to rat serum as determined by HPLC; 37 °C
Description: In general, compounds from the class of 7-acylamino-3-heteroarylthio-3-cephem carboxylic acids have higher chemical reactivity and lower stability towards chemical or enzymatic decomposition than most typical cephalosporins. […] Results shown in Table 2 represent percentage loss of the initial amount of cephalosporin compound upon 60 min incubation in rat serum.
Procedure for measuring degree of degradation of cephalosporin compounds in rat serum was as follows:
Fresh control rat serum (heparinized and stored frozen) is preincubated at 37 °C for 15 min in a shaking water bath. pH is measured using test strips. 25 µL of a 2 mg/mL solution cephalosporin compound (in water) of is then added to each matrix to make 1000 µL. Solutions were incubated at 37 °C. 100ul of solution was taken out at time = 0, 15, 30, and 60 min post dose and added 200 µL 4% trichloroacetic acid, vortexed, and centrifuged for 10 min at 14,000 rpm in an Eppendorfmicrocentrifuge. 25 µL of each supernatant was injected onto HPLC. Experiment was repeated using 25 µL of a 0.2 mg/mL cephalosporin compound. Degradation is measured as the percentage of HPLC peak area at time t relative to peak area at time 0.
HPLC conditions: Beckman Ultrasphere C18 column. 5u. 4.6mm x 25cm. 1 mL/min of 95% 0.1 M ammonium acetate, pH 6, 5% ACN going to 75% buffer/organic over 20min. UV monitored at 254 and 280 nm.

[17] = test system: S. aureus ATCC 13709 (Smith diffuse); assay: Murine model for lethal bacteremic peritonitis (septicemia); assay type: in vivo, mice; conditions: for ED50: Staphylococcus aureus, ATCC13709, sc, read-out: Efficacy in murine septicemia ED50; for Efficacy in murine septicemia %survival: subcutaneously at 0 and 2 hrs post-challenge
Description: 10 mice/group were injected intraperitoneally with 2.98x10^7 cfu S. aureus ATCC 13709 (Smith diffuse) and treated at 0 and 2hrs post-challenge with serial two-fold doses of new cephalosporin antibiotic, imipenem and vancomycin subcutaneously in order to determine the ED50. Male Swiss-Webster mice weighing originally 24.2 - 26.1 g were obtained from Charles Rivers Labs, Hollister, CA. Mice were housed 10 per cage and given free access to water and mouse chow.
Staphylococcus aureus ATCC 13709 (Smith diffuse) was grown overnight at 37 °C in Brain-heart Infusion broth (BHIB). The following morning, it was subcultured to fresh BHIB and incubated for 4-5h at 37 °C. The log-phase growth cells were washed once with physiological saline and adjusted to the desired concentration by correlation of absorbency at OD 600 nm with predetermined plate counts (NCCLS, 1994). The cell suspension was mixed with an equal volume of sterile 14% hog-gastric mucin (2). Inoculum was kept in an ice bath until used (<1h).
Mice were challenged via an injection of 0.5 mL bacterial suspension intraperitoneally. The bacterial challenge was 2.98 x 10^7 cfu/mouse.
Imipenem (Primaxin IV; Lot 7294A), vancomycin (Vancocin; Lot 8MU60W), and new cephalosporin antibiotic were prepared by serial two-fold dilutions to concentrations of 0.078 - 0.005 mg/mL, 1.2 - 0.075 mg/mL, 0.3 - 0.02 mg/mL, 0.3 - 0.02 mg/mL and 0.3 - 0.02 mg/mL respectively in sterile water (1). All antibiotics were administered subcutaneously in 0.1 mL volumes at 0 and 2 hours post-challenge. Concentrations of all compounds are based on the weight of the bioactive ingredients.
The 50% effective dose (ED50) was calculated by the probit method (3) utilizing a program entitled Probit (Nycomed-Salutar).

[18] = Serum binding determination by ultrafiltration and HPLC; assay type: in vitro ADME; conditions: % of compound bound to serum as determined by HPLC; human serum
Description: The more accurate measurement of binding of selected cephalosporin compounds was performed using HPLC as described below. […] Serum is placed in a shaking water bath preheated to 37 ± 2 °C for 5 to 10 minutes to heat serum to 37 °C. Serum pH is measured and recorded, while serum is 37 °C using pH paper. Measurements are taken twice, 3 minutes apart. […] After blowing for several minutes, serum is heated to 37 °C and measurements are taken twice, 3 minutes apart using pH paper to determine the pH. Store at 4 °C. The serum is stable for 7 days. Always check the pH before each use. • 2. Before any centrifugation, the centrifuge temperature must be adjusted to 25 ± 2 °C. Preheat the centrifuge by spinning for 45 minutes at the same speed to be used in the assay (1900 g) with two tubes of water in the rotor and the temperature set to 25 °C. When the centrifuge stops immediately check the temperature of the tubes of water with a calibrated thermometer. The temperature of the tubes of water must be 25 ± 2 °C. […] Continue spinning and measuring the temperature and adjusting the setting until the temperature is 25 ± 2 °C. • 3. Prepare blank ultrafiltrate by pipetting blank pH 7.4 serum into an Amicon Centrifree Micropartition devices, centrifuge: fixed angle rotor, 1900 g, 25 °C for 20 minutes. Heat ultrafiltrate in a shaking water bath preheated to 37 °C. Measure ultrafiltrate pH and adjust to the pH of the serum (7.4 ± 0.2). • 4. Pipette 190 ul of blank ultrafiltrate into a set of labeled 1.7 mL polypropylene microfuge tubes for 3 of each level. Pipette 10 µL of the appropriate standard stock 50, 200, 1000 µg/mL to make standards 2.5, 10, and 50 µg/mL respectively. Vortex each tube well. One set of the standard samples are mixed 1:1 with 0.2 M acetic acid and injected onto the HPLC (MSTD). These samples are the membrane standards and will be used to compare to the other standards. Pipette 190 ul of ultrafiltrate and spike with 10 ul of whatever solution (e.g. water) the standards are prepared in to make the zero standard. • 5. Pipette 475 µL of blank heated pH 7.4 serum into a set of labeled 1.7 mL polypropylene microfuge tubes for 2 of each (Serum A and Serum B). Pipette 25 µL of the 1000 µg/mL standard stock into each tube, vortex each tube well to make serum standard 50 µg/mL. Remove 100 µL of serum and deproteinate with 200 µL 4% TCA while vortexing to make serum time 0 (serum 50, T0). Place serum tubes in a shaking water bath at 37 °C for 10 minutes. Pipet 100 µL of serum out and deproteinate with 200 µL 4% TCA, to make serum time 10 min (serum 50, T10). Pipet 200 ul serum standard 50 µg/mL into an ultrafiltration device, which is not treated with TCA, to determine free drug in samples (Rat Serum 50). • 6. Transfer serum and standard samples to labeled Amicon Centrifree Micropartition filters, and centrifuge: 1900 g, 25 °C for 10 minutes. The extracted serum samples (T0 and T 10) are spun down and supernatant is loaded into HPLC vials. • 7. 100 µL of ultrafiltrate sample and 100 µL of 0.2 M acetic acid were mixed together to stabilize the compound in ultrafiltrate. • 8. Transfer entire stabilized ultrafiltrate solution to a labeled autoinjector HPLC vial cap with Teflon septa, and inject on HPLC.
Peak height or area is used in a weighted linear regression.
High levels of binding to human serum proteins limits the concentration of compound available for antibacterial activity in the body.

Work on `C[C@@H](O)[C@H]1C(=O)N2C(C(=O)O)=C(SCCN=CN)C[C@H]12` [Imipenem, reference compound] yielded an MIC [1] of no more than 0.25 µg/mL, an MIC [2] of no more than 0.25 µg/mL and an MIC [3] of 0.5 µg/mL (≈ 1.67 µM). It also gave an MIC [4] greater than 128 µg/mL, an MIC [5] of 4 µg/mL (≈ 13.4 µM) and an MIC [6] of 4 µg/mL (≈ 13.4 µM). It also gave an MIC [7] of 1 µg/mL (≈ 3.34 µM), an MIC [8] of 32 µg/mL (≈ 107 µM) and an MIC [9] of no more than 0.008 µg/mL. The MIC [10] was no more than 0.008 µg/mL, the MIC [11] was 32 µg/mL (≈ 107 µM) and the MIC [12] was 0.015 µg/mL (≈ 0.0501 µM). It also gave an MIC [13] of 0.015 µg/mL (≈ 0.0501 µM), an MIC [14] of 32 µg/mL (≈ 107 µM) and an MIC [15] of 64 µg/mL (≈ 214 µM). The degraded at 1 h [16] was 20% and the ED50 ([17]; mice, S. aureus ATCC 13709 ip, subcutaneous treatment at 0 and 2 hrs post-challenge, probit method, no unit given for ED50 (doses in mg/kg)) was 0.07 mg/kg.
In the case of `CN[C@H](CC(C)C)C(=O)N[C@H]1C(=O)N[C@@H](CC(N)=O)C(=O)N[C@H]2C(=O)N[C@H]3C(=O)N[C@H](C(=O)N[C@H](C(=O)O)c4cc(O)cc(O)c4-c4cc3ccc4O)[C@H](O)c3ccc(c(Cl)c3)Oc3cc2cc(c3O[C@@H]2O[C@H](CO)[C@@H](O)[C@H](O)[C@H]2O[C@H]2C[C@](C)(N)[C@H](O)[C@H](C)O2)Oc2ccc(cc2Cl)[C@H]1O` [Van, Vancomycin], the fraction unbound [18] is reported as 0.45, the “Efficacy in murine septicemia %survival” value ([17]; Dose 5 mg/kg) is reported as 5/100% and the “Efficacy in murine septicemia %survival” value ([17]; Dose 10 mg/kg) is reported as 10/100%. It also gave an ED50 [17] of 2.41 mg/kg.
